Assay results taken from patent US20260327264A1, “PEPTIDE INHIBITORS OF INTERLEUKIN-23 RECEPTOR” (Zealand Pharma A/S, priority 2023, published 2026).
“Also recorded” adds a separate entry of the source. Like-named read-outs stand apart in the source and are kept apart here. *1 amine or outer side, *2 acyl side, *3 side chain or, on linkers, in order; H or OH if unused. Where a SMILES comes first, the peptide text is derived from it. Bridges are numbered along the chain shown (N, C = ends). [ ]: non-standard residue; d: D form. 2Nal = N[C@@H](Cc1ccc2ccccc2c1)C(=O)O; AEF = NCCOc1ccc(C[C@H](N)C(=O)O)cc1; X1 = O=C(Cc1ccc(CN[*:1])cc1)[*:2]; 3Pal = N[C@@H](Cc1cccnc1)C(=O)O; αMeL = CC(C)C[C@](C)(N)C(=O)O; Dab = NCC[C@H](N)C(=O)O

What was measured:
[1] = Peptide stability in simulated intestinal fluid (SIF); format: in vitro ADME; details: for remaining at 1 h, 10 µM / remaining at 4 h, 10 µM: pig
Procedure: (§1) SGF and SIF were prepared based on the United States Pharmacopeia specifications (Test Solutions, United States Pharmacopeia 35, NF 30, 2012). SGF was prepared by dissolving sodium chloride (0.2 g) in 50 mL of water. A volume of 0.7 mL of 10 M HCl was added to adjust the pH of the solution to 1.2 and the volume made up to 100 mL with water. 64 mg porcine pepsin (P7125, Sigma Aldrich) was gently dissolved into 20 mL preheated (37° C.) solution (3.2 g/L) immediately prior to the incubation. SIF was prepared by dissolving monobasic potassium phosphate (0.68 g) in 50 mL of water and adjusting the pH to 6.8 with 1 M NaOH. The volume was subsequently made up to 100 mL with water. 200 mg porcine pancreatin (P1625, Sigma Aldrich) was gently dissolved into 20 mL preheated (37° C.) solution (10 g/L) immediately prior to the incubation.
(§2) To initiate the incubations, 20 μL of peptide stock solution in 50% v/v isopropanol was deposited at the bottom of a well plate and 580 μL matrix solution was added to give a final substrate concentration of 10 μM. The incubation was performed at 37° C. with gentle shaking. 70 μL aliquots were removed at 0, 1 and 4 hours and quenched into 210 μL ice-cold precipitant solution (95% v/v acetonitrile with 0.1% v/v formic acid). After the last timepoint, the sampling plate was mixed for 10 min on a shaking table and centrifuged 10 min at 2200 g. 70 μL resulting supernatant was diluted with 150 μL water, mixed and centrifugated before analysis by liquid chromatography high resolution mass spectrometry. The zero sample was reinjected after the 4-hour sample to confirm that no drift in instrument sensitivity had occurred during the run. Percent remaining at each timepoint was calculated relative to timepoint zero based on absolute peak areas.
Compounds with a SIF stability (after 4 h) above 70% are considered highly SIF stable. Compounds with a SIF stability (after 4 h) between 30-70% (including 30% and 70%) are considered moderately SIF stable. Compounds with a SIF stability (after 4 h) below 30% are considered SIF unstable. SIF stability values above 100% are due to assay uncertainty and indicate the compound has not degraded.

[2] = Peptide stability in simulated gastric fluid (SGF); format: in vitro ADME; details: pig, pH 1.2, pepsin, 37° C.
Procedure: as §1, §2
Compounds with a SGF stability (after 4 h) above 70% are considered highly SGF stable. Compounds with a SGF stability (after 4 h) between 30-70% (including 30% and 70%) are considered moderately SGF stable. Compounds with a SGF stability (after 4 h) below 30% are considered SGF unstable. SGF stability values above 100% are due to assay uncertainty and indicate the compound has not degraded.

[3] = tested on: IL-23 mediated STAT3 signalling (DB cells); experiment: Functional inhibition of IL-23 mediated STAT3 signalling (phospho-STAT3 Tyr705) in DB cells; format: cell-based, human; details: for hIL-23 (pSTAT3) antagonist % inhibition: Table 3-2, maximal inhibitory response, EC80 of hIL-23
Outline: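 DB cells preincubated 15 min with inhibitor at 37° C, 5% CO2, then stimulated 90 min with hIL-23 at EC80. Lysate phospho-STAT3 measured by MSD electrochemiluminescence. Signal normalized to IL-23-alone and buffer wells; IC50 and maximal inhibition from concentration–response curves.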

human IL-23R = biological target: T1, human IL-23R (Homo sapiens, UniProt Q5VWK5); experiment: Binding assay: displacement of fluorophore (TAMRA)-labelled reference compound from human IL-23R (BRET, Nluc-IL23R fusion protein membranes); details: for potency of the compound (in words): potency against IL-23R; for Emax: read-out: % displacement (hIL-23R binding)
T1 construct: Nanoluc luciferase (Nluc); secretion signal encoded by the plasmid (not specified); expressed in transfected cells; crude membranes used in the assay
T1 sequence (Q5VWK5 22-629): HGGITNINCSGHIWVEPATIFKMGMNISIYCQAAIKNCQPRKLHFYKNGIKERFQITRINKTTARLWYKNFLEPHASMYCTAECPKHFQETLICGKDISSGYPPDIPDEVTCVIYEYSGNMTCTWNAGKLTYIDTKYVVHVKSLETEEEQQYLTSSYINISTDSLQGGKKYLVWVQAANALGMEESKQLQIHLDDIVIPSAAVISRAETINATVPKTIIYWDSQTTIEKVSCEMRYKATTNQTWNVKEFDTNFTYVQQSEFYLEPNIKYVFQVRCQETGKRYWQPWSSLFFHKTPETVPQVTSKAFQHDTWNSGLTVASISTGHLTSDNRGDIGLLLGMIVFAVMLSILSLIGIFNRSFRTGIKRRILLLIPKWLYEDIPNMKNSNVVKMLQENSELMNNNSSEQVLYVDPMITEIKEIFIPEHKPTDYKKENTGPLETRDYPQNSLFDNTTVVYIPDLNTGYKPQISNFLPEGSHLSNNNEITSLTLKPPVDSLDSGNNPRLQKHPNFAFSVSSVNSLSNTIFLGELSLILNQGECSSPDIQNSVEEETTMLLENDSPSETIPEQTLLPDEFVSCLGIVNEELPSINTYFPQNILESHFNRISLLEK

[4] = simulated intestinal fluid, SIF, pH 6.8, pancreatin, 37° C.
[5] = simulated intestinal fluid, SIF, pH 6.8, pancreatin, 37° C., read-out: SIF (% remaining 4 h)
[6] = EC80 of hIL-23, read-out: IC50 (pSTAT3)
[7] = Table 3-2, EC80 of hIL-23, read-out: hIL-23 (pSTAT3) antagonist IC50

Row | SMILES | remaining at 1 h, 10 µM [1, 4] [%] | remaining at 4 h, 10 µM [1, 5] [%] | remaining at 1 h, 10 µM [2] [%] | remaining at 4 h, 10 µM [2] [%] | IC50 [3, 6] [nM] | IC50 [3, 7] [nM] | hIL-23 (pSTAT3) antagonist % inhibition [3] [%] | potency of the compound (in words) (human IL-23R) | remaining at 4 h, 10 µM ([1]; 37 °C, simulated intestinal fluid pH 6.8 with porcine pancreatin, read-out: SIF (% after 4 h), intact peptide remaining) [%] | SIF stability (in words) ([1]; simulated intestinal fluid) | IC50 (human IL-23R) [nM] | Emax (human IL-23R) [%] | major metabolite formed after incubation in the SIF assay ([1]; simulated intestinal fluid)
1 | CC(C)C[C@@H]1NC(=O)[C@H](Cc2c[nH]c3ccccc23)NC(=O)[C@H](Cc2c[nH]c3ccccc23)NC(=O)[C@@H]2CSCC(=O)CSC[C@H](NC(=O)[C@H](CO)NC(=O)[C@@H](NC(=O)[C@@H](N)CC(=O)O)CSCC(=O)CSC[C@@H](C(=O)N[C@@H](CCCNC(=N)N)C(N)=O)NC1=O)C(=O)N[C@@H](Cc1c[nH]c3ccccc13)C(=O)N[C@@H](CCC(N)=O)C(=O)N2 (single isomer, unassigned) [I3 (isomer 3), H-DC(1a)SC(2a)WQC(2a)WWLC(1a)R-[NH2], reference compound] | 0 | 0 | 5 | 0 | – | – | – | – | – | – | – | – | –
2 | CC(C)C[C@]1(C)NC(=O)[C@H](Cc2ccc3ccccc3c2)NC(=O)[C@H](Cc2ccc(OCCN)cc2)NC(=O)[C@@H]2CCNC(=O)CC[C@H](NC(=O)[C@H](CO)NC(=O)Cc3ccc(cc3)CNC(=O)CC[C@@H](C(=O)N[C@@H](CCN)C(=O)N[C@H](Cc3cccnc3)C(N)=O)NC1=O)C(=O)N[C@@H](Cc1c[nH]c3ccccc13)C(=O)N[C@@H](CCC(N)=O)C(=O)N2 [Compound 5, [4-Aminomethyl-phenylacetyl](1c)*SE(2c)WQ[Dab](2c)[Y(2-aminoethoxy)][2-Nal][2-Me-Leu]E(1c)[Dab][{d}3-(3-Pyridyl)-Ala]-[NH2]] | 91 | – | – | 105 | 2.1 | 2.1 | 95 | – | – | – | – | – | –
3 | CC(C)C[C@]1(C)NC(=O)[C@H](Cc2ccc3ccccc3c2)NC(=O)[C@H](Cc2ccc(OCCN)cc2)NC(=O)[C@@H]2CCNC(=O)CC[C@H](NC(=O)[C@H](CO)NC(=O)Cc3ccc(cc3)CNC(=O)CC[C@@H](C(=O)N[C@@H](CCN)C(=O)NCCc3cccnc3)NC1=O)C(=O)N[C@@H](Cc1c[nH]c3ccccc13)C(=O)N[C@@H](CCC(N)=O)C(=O)N2 [Compound 7, [4-Aminomethyl-phenylacetyl](1c)*SE(2c)WQ[Dab](2c)[Y(2-aminoethoxy)][2-Nal][2-Me-Leu]E(1c)[Dab]-[NH-(2-(pyridin-3-yl)ethyl)]] | 103 | – | – | – | 0.13 | 0.13 | 98 | more potent than Compound 6; also recorded: particularly potent | 130 | SIF stable | – | – | –
4 | CNC(=O)[C@H](Cc1cccnc1)NC(=O)[C@H](CCC(N)=O)NC(=O)[C@@H]1CCC(=O)NCc2ccc(cc2)CC(=O)N[C@@H](CO)C(=O)N[C@H]2CCC(=O)NCC[C@H](NC(=O)[C@H](CCC(N)=O)NC(=O)[C@H](Cc3c[nH]c4ccccc34)NC2=O)C(=O)N[C@@H](Cc2ccc(OCCN)cc2)C(=O)N[C@@H](Cc2ccc3ccccc3c2)C(=O)N[C@@](C)(CC(C)C)C(=O)N1 [Compound 33, [4-Aminomethyl-phenylacetyl](1c)*SE(2c)WQ[Dab](2c)[Y(2-aminoethoxy)][2-Nal][2-Me-Leu]E(1c)Q[3-(3-Pyridyl)-Ala]-[NHMe]] ([X1]SEWQ[Dab][AEF][2Nal][αMeL]EQ[3Pal]-NHMe; lactam 3-6, N-10) | 92 | – | 98 | – | – | – | – | – | – | – | – | – | –
5 | CNC(=O)[C@H](Cc1cccnc1)NC(=O)[C@H](CCN)NC(=O)[C@@H]1CCC(=O)NCc2ccc(cc2)CC(=O)N[C@@H](C)C(=O)N[C@H]2CCC(=O)NCC[C@H](NC(=O)[C@H](CCC(N)=O)NC(=O)[C@H](Cc3c[nH]c4ccccc34)NC2=O)C(=O)N[C@@H](Cc2ccc(OCCN)cc2)C(=O)N[C@@H](Cc2c[nH]c3ncccc23)C(=O)NC(C)(C)C(=O)N1 [Compound 44, [4-Aminomethyl-phenylacetyl](1c)*AE(2c)WQ[Dab](2c)[Y(2-aminoethoxy)][7-AzaTrp][Aib]E(1c)[Dab][3-(3-Pyridyl)-Ala]-[NHMe]] | 78 | 91 | – | – | – | – | – | – | – | – | – | – | –
6 | CNC(=O)[C@H](Cc1cccnc1)NC(=O)[C@H](CCN)NC(=O)[C@@H]1CCC(=O)NCc2ccc(cc2)CC(=O)N[C@@H](C)C(=O)N[C@H]2CCC(=O)NCC[C@H](NC(=O)[C@H](CCC(N)=O)NC(=O)[C@H](Cc3c[nH]c4ccccc34)NC2=O)C(=O)N[C@@H](Cc2ccc(OCCN)cc2)C(=O)N[C@@H](Cc2cnc3ccccc3c2)C(=O)NC(C)(C)C(=O)N1 [Compound 49, 4-aminomethyl-phenylacetyl](1c)*AE(2c)WQ[Dab](2c)[Y(2-aminoethoxy)][3-quinolinylalanine][Aib]E(1c)[Dab][3-(3-Pyridyl)-alanyl]-[NHMe]] | 93 | 89 | – | – | – | 0.093 | 100 | – | – | – | 0.023 | 89 | –
7 | CNC(=O)[C@H](Cc1cccnc1)NC(=O)[C@H](CCN)NC(=O)[C@@H]1CCC(=O)NCc2ccc(cc2)CC(=O)N[C@@H](C)C(=O)N[C@H]2CCC(=O)NCC[C@H](NC(=O)[C@H](CCC(N)=O)NC(=O)[C@H](Cc3c[nH]c4ccccc34)NC2=O)C(=O)N[C@@H](Cc2cnc3ccccc3c2)C(=O)N[C@@H](Cc2ccc3ccccc3c2)C(=O)NC(C)(C)C(=O)N1 [Compound 52, [4-aminomethyl-phenylacetyl](1c)*AE(2c)WQ[Dab](2c)[3-quinolinylalanine][2Nal][Aib]E(1c)[Dab][3-(3-Pyridyl)-alanyl]-[NHMe]] | 92 | 95 | – | – | – | 0.6 | 99 | – | – | – | 0.081 | 102 | –
8 | CC(C)C[C@]1(C)NC(=O)[C@H](Cc2ccc3ccccc3c2)NC(=O)[C@H](Cc2ccc(OCCN)cc2)NC(=O)[C@@H]2CCNC(=O)CC[C@H](NC(=O)[C@H](CO)NC(=O)Cc3ccc(cc3)CNC(=O)CC[C@@H](C(=O)N[C@@H](CCN)C(=O)N[C@@H](Cc3cccnc3)C(N)=O)NC1=O)C(=O)N[C@@H](Cc1c[nH]c3ccccc13)C(=O)N[C@@H](CCC(N)=O)C(=O)N2 [Ref 122, [4-Aminomethyl-phenylacetyl](1c)*SE(2c)WQ[Dab](2c)[Y(2-aminoethoxy)][2-Nal][2-Me-Leu]E(1c)[Dab][3-(3-Pyridyl)-Ala]-[NH2], reference compound] | – | – | – | – | – | – | 99 | potent | – | not stable | – | 97 | the peptide without the C-terminal 3Pal (3-(3-Pyridyl)-Ala) amino acid
